Reference: DBAASP
Values after ≈ are worked out from the molar mass of the structure shown.

How the values were obtained:
Experiment in all cases: ≥ marks a high value that may be exact or a test limit, other limits are often not marked, values filed in µg/mL are converted to µM
[1] = tested on: Micrococcus luteus ATCC 4698
[2] = tested on: Bacillus cereus ATCC 11778
[3] = tested on: Pseudomonas aeruginosa ATCC 13388
[4] = tested on: Bacillus subtilis CCT 2576
[5] = tested on: Streptococcus pneumoniae ATCC 11733
[6] = tested on: Staphylococcus aureus CCT 6538
[7] = tested on: Staphylococcus epidermidis ATCC 12228
[8] = tested on: Bacillus thuringiensis ATCC 10792
[9] = tested on: Staphylococcus aureus CCT 2580
[10] = tested on: Pseudomonas aeruginosa ATCC 15422
[11] = tested on: Salmonella enterica subsp. enterica serovar Typhimurium ATCC 14028
[12] = tested on: Salmonella enterica subsp. enterica serovar Choleraesuis ATCC 10708
[13] = tested on: Escherichia coli CCT 1457
[14] = tested on: Enterococcus hirae ATCC 10541
[15] = tested on: Escherichia coli ATCC 25922
[16] = tested on: Streptococcus mutans AU159
[17] = tested on: Enterococcus faecium CCT 5079
[18] = tested on: Staphylococcus aureus ATCC 25923
[19] = tested on: Escherichia coli ATCC 11775
[20] = tested on: Staphylococcus aureus ATCC 6538
Pseudomonas aeruginosa 1 = tested on: Pseudomonas aeruginosa 1
[21] = tested on: Pseudomonas aeruginosa ATCC 27853
Candida albicans 1 = tested on: Candida albicans 1
Proteus vulgaris = tested on: Proteus vulgaris
Shigella dysenteriae = tested on: Shigella dysenteriae
Arcyria cinerea = tested on: Arcyria cinerea
Enterococcus faecium = tested on: Enterococcus faecium
Candida albicans 5 = tested on: Candida albicans 5
Klebsiella pneumoniae 5 = tested on: Klebsiella pneumoniae 5
Proteus mirabilis = tested on: Proteus mirabilis
Serratia marcescens = tested on: Serratia marcescens
Pseudomonas aeruginosa 2 = tested on: Pseudomonas aeruginosa 2
[22] = tested on: Stenotrophomonas maltophilia
Bacillus subtilis = tested on: Bacillus subtilis
Staphylococcus aureus 1 = tested on: Staphylococcus aureus 1
[23] = tested on: Salmonella enterica subsp. enterica serovar Paratyphi A
Klebsiella pneumoniae 2 = tested on: Klebsiella pneumoniae 2
Klebsiella pneumoniae 1 = tested on: Klebsiella pneumoniae 1
Candida albicans = tested on: Candida albicans
Staphylococcus aureus 4 = tested on: Staphylococcus aureus 4
Enterococcus faecalis = tested on: Enterococcus faecalis
Candida glabrata 1 = tested on: Candida glabrata 1
Candida glabrata = tested on: Candida glabrata
Escherichia coli = tested on: Escherichia coli
Acinetobacter baumannii = tested on: Acinetobacter baumannii
Bacillus cereus = tested on: Bacillus cereus
Klebsiella pneumoniae = tested on: Klebsiella pneumoniae
Cryptococcus neoformans = tested on: Cryptococcus neoformans
[24] = tested on: Stenotrophomonas maltophilia 2
[25] = tested on: Staphylococcus epidermidis
Nocardia asteroides = tested on: Nocardia asteroides
Klebsiella oxytoca = tested on: Klebsiella oxytoca
[26] = tested on: Klebsiella pneumoniae ATCC 700603
Bacillus subtilis PY79 = tested on: Bacillus subtilis PY79
[27] = tested on: Pseudomonas aeruginosa PA14
[28] = tested on: Escherichia coli DH5alpha
[29] = tested on: Staphylococcus aureus ATCC 6538P
[30] = tested on: Pseudomonas aeruginosa PAO1
[31] = tested on: Fusarium graminearum PH-1

CC[C@H](C)[C@H](N)C(=O)N[C@@H](CC(N)=O)C(=O)N[C@@H](Cc1c[nH]c2ccccc12)C(=O)N[C@@H](CC(C)C)C(=O)N[C@@H](CCCCN)C(=O)N[C@@H](C)C(=O)N[C@@H](CCCCN)C(=O)N[C@@H](CCCCN)C(=O)N[C@H](C(=O)N[C@@H](C)C(=O)NCC(=O)N[C@@H](CCSC)C(=O)N[C@H](C(=O)N[C@@H](CC(C)C)C(N)=O)[C@@H](C)CC)C(C)C [INWLKAKKVAGMIL]
MIC [1]: 19.6 µM (≈ 31 µg/mL)
MIC [2]: 10.1 µM (≈ 16 µg/mL)
MIC [3]: ≥ 158 µM
MIC [4]: 7.38 µM (≈ 11.7 µg/mL)
MIC [5]: ≥ 78.9 µM
MIC [6]: ≥ 39.7 µM
MIC [7]: 39.7 µM (≈ 63 µg/mL)
MIC [8]: ≥ 78.9 µM
MIC [9]: 27.1 µM (≈ 43 µg/mL)
MIC [10]: ≥ 78.9 µM
MIC [11]: 315 µM (≈ 500 µg/mL)
MIC [12]: ≥ 315 µM
MIC [13]: 19.6 µM (≈ 31 µg/mL)
MIC [14]: ≥ 39.7 µM
MIC [15]: 14.8 µM (≈ 23.4 µg/mL)
MIC [16]: ≥ 315 µM
MIC [17]: ≥ 158 µM
MIC [18]: 39.7 µM (≈ 63 µg/mL)
MIC [19]: ≥ 39.7 µM
MIC [20]: 27.1 µM (≈ 42.9 µg/mL)

CC[C@H](C)[C@H](NC(=O)[C@H](CO)NC(=O)[C@H](CCCCN)NC(=O)[C@@H](NC(=O)[C@H](CCCCN)NC(=O)[C@H](CCCCN)NC(=O)[C@H](CCCCN)NC(=O)[C@@H](NC(=O)[C@H](CCCCN)NC(=O)[C@@H]1CSSC[C@H](NC(=O)[C@H](CCCCN)NC(=O)[C@@H](N)CCCCN)C(=O)N[C@@H](CCCCN)C(=O)N[C@@H](Cc2ccccc2)C(=O)N[C@@H](Cc2ccccc2)C(=O)N1)C(C)C)[C@@H](C)CC)C(=O)NCC(=O)N[C@@H](Cc1ccccc1)C(=O)N[C@@H](CCC(N)=O)C(=O)N[C@H](C(=O)N1CCC[C@H]1C(=O)N[C@H](C(=O)N[C@H](C(=O)N[C@@H](CO)C(=O)N[C@H](C(=O)N1CCC[C@H]1C(=O)N[C@@H](Cc1ccccc1)C(=O)N[C@@H](CCCCN)C(=O)O)[C@@H](C)CC)C(C)C)[C@@H](C)CC)[C@@H](C)CC [KKCKFFCKVKKKIKSIGFQIPIVSIPFK]
MIC (Pseudomonas aeruginosa 1): 5.71 µM (≈ 18.7 µg/mL)
MIC [21]: 2.86 µM (≈ 9.37 µg/mL)
MIC (Candida albicans 1): 2.86 µM (≈ 9.37 µg/mL)
MIC (Proteus vulgaris): ≥ 60.9 µM
MIC (Shigella dysenteriae): 1.43 µM (≈ 4.69 µg/mL)
MIC (Arcyria cinerea): 5.71 µM (≈ 18.7 µg/mL)
MIC (Enterococcus faecium): 2.86 µM (≈ 9.37 µg/mL)
MIC (Candida albicans 5): ≥ 60.9 µM
MIC (Klebsiella pneumoniae 5): ≥ 60.9 µM
MIC (Proteus mirabilis): 5.71 µM (≈ 18.7 µg/mL)
MIC (Serratia marcescens): ≥ 60.9 µM
MIC (Pseudomonas aeruginosa 2): 1.43 µM (≈ 4.69 µg/mL)
MIC [22]: 11.4 µM (≈ 37.5 µg/mL)
MIC (Bacillus subtilis): 2.86 µM (≈ 9.37 µg/mL)
MIC (Staphylococcus aureus 1): 2.02 µM (≈ 6.63 µg/mL)
MIC [23]: 11.4 µM (≈ 37.5 µg/mL)
MIC (Klebsiella pneumoniae 2): 5.71 µM (≈ 18.7 µg/mL)
MIC (Klebsiella pneumoniae 1): 11.4 µM (≈ 37.5 µg/mL)
MIC (Candida albicans): 11.4 µM (≈ 37.5 µg/mL)
MIC (Staphylococcus aureus 4): ≥ 60.9 µM
MIC (Enterococcus faecalis): 22.8 µM (≈ 75 µg/mL)
MIC (Candida glabrata 1): 2.86 µM (≈ 9.37 µg/mL)
MIC (Candida glabrata): ≥ 60.9 µM
MIC [18]: > 60.9 µM
MIC (Escherichia coli): 4.04 µM (≈ 13.3 µg/mL)
MIC (Acinetobacter baumannii): ≥ 60.9 µM
MIC (Bacillus cereus): ≥ 60.9 µM
MIC (Klebsiella pneumoniae): 22.8 µM (≈ 75 µg/mL)
MIC (Cryptococcus neoformans): ≥ 60.9 µM
MIC [24]: 2.86 µM (≈ 9.37 µg/mL)
MIC [25]: 2.86 µM (≈ 9.37 µg/mL)
MIC (Nocardia asteroides): 22.8 µM (≈ 75 µg/mL)
MIC (Klebsiella oxytoca): 1.43 µM (≈ 4.69 µg/mL)

CC(=O)NC(CC(C)C)C(=O)NC(CCCNC(=N)N)C(=O)NC(C(=O)NC(CCCNC(=N)N)C(=O)NC(CC(C)C)C(=O)NC(C)C(=O)NC(CO)C(=O)NC(Cc1c[nH]cn1)C(=O)NC(CC(C)C)C(=O)NC(CCCNC(=N)N)C(=O)NC(CCCCN)C(=O)NC(CC(C)C)C(=O)NC(CCCNC(=N)N)C(=O)NC(CCCCN)C(=O)NC(CCCNC(=N)N)C(=O)NC(CC(C)C)C(=O)NC(CC(C)C)C(N)=O)C(C)C (stereo unspecified) [LRVRLASHLRKLRKRLL]
MIC [26]: 3.12 µM (≈ 6.77 µg/mL)
MIC (Bacillus subtilis PY79): ≥ 100 µM
MIC [27]: ≥ 50 µM
MIC [28]: 12.5 µM (≈ 27.1 µg/mL)
MIC [15]: 6.25 µM (≈ 13.6 µg/mL)
MIC [29]: ≥ 100 µM
MIC [30]: 25 µM (≈ 54.2 µg/mL)

NC(N)=NCCC[C@H](NC(=O)[C@H](CCCN=C(N)N)NC(=O)[C@H](CCCN=C(N)N)NC(=O)[C@H](Cc1ccccc1)NC(=O)CNC(=O)[C@@H](N)CCCN=C(N)N)C(=O)O [RGFRRR]
MIC [31]: 12 µM (≈ 10.2 µg/mL)
